Tests used:
Experiment in all cases: Enzyme Assay
Conditions in all cases: pH 7.4; 30 °C
[1] = target: Casein kinase I isoform alpha (Homo sapiens, UniProt P48729)
Procedure: (§1) Casein kinase activities were determined under the conditions as described by Huang et al (1982).

[2] = target: Casein kinase II subunit alpha (Homo sapiens, UniProt P68400)
Procedure: as §1

[3] = target: Calcium/calmodulin-dependent protein kinase II inhibitor 2 (Bos taurus, UniProt A5D7T0)
[4] = target: Protein kinase C alpha type (Homo sapiens, UniProt P17252)
[5] = target: cAMP-dependent protein kinase type I-alpha regulatory subunit (Bos taurus, UniProt P00514)
Chain of cAMP-dependent protein kinase type I-alpha regulatory subunit (P00514 whole entry): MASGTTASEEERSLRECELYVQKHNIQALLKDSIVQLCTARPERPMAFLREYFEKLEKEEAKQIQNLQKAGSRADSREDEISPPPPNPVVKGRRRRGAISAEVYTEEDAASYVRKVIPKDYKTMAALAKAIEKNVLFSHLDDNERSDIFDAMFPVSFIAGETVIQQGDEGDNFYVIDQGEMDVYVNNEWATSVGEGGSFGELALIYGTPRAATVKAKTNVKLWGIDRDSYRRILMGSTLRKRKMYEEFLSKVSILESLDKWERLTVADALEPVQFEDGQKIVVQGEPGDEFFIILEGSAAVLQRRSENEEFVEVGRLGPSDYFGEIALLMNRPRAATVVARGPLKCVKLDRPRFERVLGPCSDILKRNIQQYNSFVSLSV

Chain of Casein kinase I isoform alpha (P48729 whole entry, canonical isoform): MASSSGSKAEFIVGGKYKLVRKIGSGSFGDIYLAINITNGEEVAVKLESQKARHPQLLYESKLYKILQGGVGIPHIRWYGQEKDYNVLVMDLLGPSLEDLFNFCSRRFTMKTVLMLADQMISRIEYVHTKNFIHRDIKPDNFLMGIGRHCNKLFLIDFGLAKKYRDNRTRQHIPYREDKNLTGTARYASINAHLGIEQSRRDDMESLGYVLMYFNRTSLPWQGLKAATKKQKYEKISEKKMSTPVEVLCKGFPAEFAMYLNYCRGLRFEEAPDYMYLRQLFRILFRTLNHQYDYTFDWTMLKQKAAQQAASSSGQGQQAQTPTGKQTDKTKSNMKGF
Chain of Calcium/calmodulin-dependent protein kinase II inhibitor 2 (A5D7T0 whole entry): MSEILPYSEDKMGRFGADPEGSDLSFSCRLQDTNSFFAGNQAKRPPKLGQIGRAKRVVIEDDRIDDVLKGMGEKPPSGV
Chain of Casein kinase II subunit alpha (P68400 whole entry): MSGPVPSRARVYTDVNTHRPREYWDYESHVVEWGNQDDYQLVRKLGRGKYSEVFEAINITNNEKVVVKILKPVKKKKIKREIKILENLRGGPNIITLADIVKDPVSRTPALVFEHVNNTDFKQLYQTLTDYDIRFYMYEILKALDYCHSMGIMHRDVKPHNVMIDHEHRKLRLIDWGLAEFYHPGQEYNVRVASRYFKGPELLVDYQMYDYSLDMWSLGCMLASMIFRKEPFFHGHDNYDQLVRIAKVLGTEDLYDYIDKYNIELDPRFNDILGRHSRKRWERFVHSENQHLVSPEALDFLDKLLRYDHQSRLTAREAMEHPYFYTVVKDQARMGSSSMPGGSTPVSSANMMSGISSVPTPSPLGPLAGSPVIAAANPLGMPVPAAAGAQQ

IC50 [1] [µM] | IC50 [2] [µM] | IC50 [3] [µM] | IC50 [4] [µM] | IC50 [5] [µM] | SMILES
110 | > 300 | 58 | 18 | 3.6 | NCCNS(=O)(=O)c1cccc2cnccc12 [Isoquinoline-5-sulfonic acid (2-amino-ethyl)-amide]
50 | > 300 | 840 | > 1000 | > 1000 | NCCNS(=O)(=O)c1cccc2ccncc12 [Isoquinolinesulfonamide, CKI-6]
9.5 | 90 | 195 | > 1000 | 550 | NCCNS(=O)(=O)c1ccc(Cl)c2ccncc12 [Isoquinolinesulfonamide, CKI-7]

From BindingDB's records for PubMed 2925675 (Nagoya University School of Medicine, 1989)
